# Earlier results in US11369672B2 (priority 2012, dated 2022).
# Tested on: Mtb H37Rv
compound,measurement,value
"CO[C@H]1/C=C/O[C@@]2(C)Oc3c(C)c(O)c4c(O)c(c(/C=N/N5CCN(C)CC5)c(O)c4c3C2=O)NC(=O)/C(C)=C\C=C\[C@H](C)[C@H](O)[C@@H](C)[C@@H](O)[C@@H](C)[C@H](OC(C)=O)[C@@H]1C [RIF, rifampin]",minimum inhibitory concentration,0.25 µM
